Results on 24 compounds are retold here after patent US20090054435A1, “Phenoxyalkanoic Acid Compound” (priority 2005, published 2009).

Each structure is given as a SMILES string.

As to `COc1ccc(C(=O)c2cccc(OCc3nc(-c4ccccc4)oc3C)c2)c(OCCOC(C)=O)c1` [Example 2, (5-methoxy-2-{3-[(5-methyl-2-phenyl-1,3-oxazol-4-yl)methoxy]benzoyl}phenoxy)ethyl acetate], the melting point (in general, the temperature, or range, at which the solid turns liquid) fell in the range of 90 to 91 °C.
For `COc1ccc(C(=O)c2cccc(OCc3nc(-c4ccccc4)oc3C)c2)c(OCC(=O)O)c1` [Example 4, (5-methoxy-2-{3-[(5-methyl-2-phenyl-1,3-oxazol-4-yl)methoxy]benzoyl}phenoxy)acetic acid] the value was 198 to 199 °C; for `COc1ccc(C(C)(O)c2cccc(OCc3nc(-c4ccccc4)oc3C)c2)c(OCCOC(C)=O)c1` (stereo not drawn) [Example 5, [2-(1-hydroxy-1-{3-[(5-methyl-2-phenyl-1,3-oxazol-4-yl)methoxy]phenyl}ethyl)-5-methoxyphenoxy]ethyl acetate], 144 to 145 °C; for `COc1ccc(C(C)(O)c2cccc(OCc3nc(-c4ccccc4)oc3C)c2)c(OCC(=O)O)c1` (stereo not drawn) [Example 6, [2-(1-hydroxy-1-{3-[(5-methyl-2-phenyl-1,3-oxazol-4-yl)methoxy]phenyl}ethyl)-5-methoxyphenoxy]acetic acid], 148 to 149 °C.
For `CCOC(c1cccc(OCc2nc(-c3ccccc3)oc2C)c1)c1ccc(OC)cc1OCC(=O)O` (stereo not drawn) [Example 7, [2-(ethoxy{3-[(5-methyl-2-phenyl-1,3-oxazol-4-yl)methoxy]phenyl}methyl)-5-methoxyphenoxy]acetic acid] the value was 129 to 130 °C; for `Cc1oc(-c2ccccc2)nc1COc1ccc(C(=O)c2ccccc2OCC(=O)O)cc1` [Example 8, (2-{4-[(5-methyl-2-phenyl-1,3-oxazol-4-yl)methoxy]benzoyl}phenoxy)acetic acid], 174 to 175 °C.
For `Cc1oc(-c2ccccc2)nc1COc1ccc(C(=O)c2ccc(O)cc2OCC(=O)O)cc1` [Example 11, (5-hydroxy-2-{4-[(5-methyl-2-phenyl-1,3-oxazol-4-yl)methoxy]benzoyl}phenoxy)acetic acid] the value was 229 to 230 °C; for `CCOC(=O)COc1cc(O)ccc1C(=O)c1ccc(OCc2nc(-c3ccccc3)oc2C)cc1` [Example 12, ethyl (5-hydroxy-2-{4-[(5-methyl-2-phenyl-1,3-oxazol-4-yl)methoxy]benzoyl}phenoxy)acetate], 184 to 186 °C; for `COc1ccc(C(=O)c2ccc(OCc3nc(-c4ccccc4)oc3C)cc2)c(OC(C)C(=O)O)c1` (stereo not drawn) [Example 13, 2-(5-methoxy-2-{4-[(5-methyl-2-phenyl-1,3-oxazol-4-yl)methoxy]benzoyl}phenoxy)propanoic acid], 100 to 102 °C.
`COc1ccc(C(=O)c2ccc(OCc3nc(-c4ccccc4)oc3C)cc2)c(OCCC(=O)O)c1` [Example 15, 3-(5-methoxy-2-{4-[(5-methyl-2-phenyl-1,3-oxazol-4-yl)methoxy]benzoyl}phenoxy)propanoic acid] came in with a melting point of 142 to 143 °C.
For `CCC(Oc1cc(OC)ccc1C(=O)c1ccc(OCc2nc(-c3ccccc3)oc2C)cc1)C(=O)O` (stereo not drawn) [Example 17, 2-(5-methoxy-2-{4-[(5-methyl-2-phenyl-1,3-oxazol-4-yl)methoxy]benzoyl}phenoxy)butanoic acid] the value was 161 to 162 °C; for `COc1ccc(C(=O)c2ccc(OCc3nc(-c4ccccc4)oc3C)cc2)c(OC(C(=O)O)C(C)C)c1` (stereo not drawn) [Example 18, 2-(5-methoxy-2-{4-[(5-methyl-2-phenyl-1,3-oxazol-4-yl)methoxy]benzoyl}phenoxy)-3-methylbutanoic acid], 87 to 88 °C.
The compound `COc1ccc(C(=O)c2ccc(OCc3nc(-c4ccccc4)oc3C)cc2)c(OC(F)(F)C(=O)O)c1` [Example 19, difluoro (5-methoxy-2-{4-[(5-methyl-2-phenyl-1,3-oxazol-4-yl)methoxy]benzoyl}phenoxy)acetic acid] showed a melting point of 166 to 167 °C.
For `CCCC(Oc1cc(OC)ccc1C(=O)c1ccc(OCc2nc(-c3ccccc3)oc2C)cc1)C(=O)O` (stereo not drawn) [Example 20, 2-(5-methoxy-2-{4-[(5-methyl-2-phenyl-1,3-oxazol-4-yl)methoxy]benzoyl}phenoxy)pentanoic acid] the value was 139 to 140 °C; for `COc1ccc(C(=O)c2ccc(OCc3nc(-c4ccccc4)oc3C)cc2)c(OC2(C(=O)O)CCC2)c1` [Example 23, 1-(5-methoxy-2-{4-[(5-methyl-2-phenyl-1,3-oxazol-4-yl)methoxy]benzoyl}phenoxy)cyclobutanecarboxylic acid], 199 to 201 °C; for `COc1ccc(C(=O)c2ccc(OCc3nc(-c4ccccc4)sc3C)cc2)c(OC(C)(C)C(=O)O)c1` [Example 29, 2-(5-methoxy-2-{4-[(5-methyl-2-phenyl-1,3-thiazol-4-yl)methoxy]benzoyl}phenoxy)-2-methylpropanoic acid], 145 to 147 °C.
For `COc1ccc(C(=O)c2ccc(OCc3coc(-c4ccccc4)n3)cc2)c(OC(C)(C)C(=O)O)c1` [Example 32, 2-(5-methoxy-2-{4-[(2-phenyl-1,3-oxazol-4-yl)methoxy]benzoyl}phenoxy)-2-methylpropanoic acid] the value was 165 to 167 °C; for `COc1ccc(C(=O)c2ccc(OCc3nc(-c4cccc(OS(C)(=O)=O)c4)oc3C)cc2)c(OC(C)(C)C(=O)O)c1` [Example 37, 2-{5-methoxy-2-[4-({5-methyl-2-[3-(methanesulfonyloxy)phenyl]-1,3-oxazol-4-yl}methoxy)benzoyl]phenoxy}-2-methylpropanoic acid], 182 to 183 °C.
For `COc1ccc(C(=O)c2ccc(OCCc3nc(-c4ccccc4)oc3C)cc2)c(OC(C)(C)C(=O)O)c1` [Example 38, 2-(5-methoxy-2-{4-[2-(5-methyl-2-phenyl-1,3-oxazol-4-yl)ethoxy]benzoyl}phenoxy)-2-methylpropanoic acid] the value was 81 to 82 °C; for `COc1ccc(O[C@H](C)C(=O)O)c(C(=O)c2ccc(OCc3nc(-c4ccccc4)oc3C)cc2)c1` [Example 39, (2R)-2-(4-methoxy-2-{4-[(5-methyl-2-phenyl-1,3-oxazol-4-yl)methoxy]benzoyl}phenoxy)propanoic acid], 119 to 120 °C.
Turning to `COc1ccc(C(=O)c2ccc(OCc3ccccc3)nc2)c(OC(C)(C)C(=O)OC(C)(C)C)c1` [Example 45, tert-butyl 2-(2-{[6-(benzyloxy)pyridin-3-yl]carbonyl}-5-methoxyphenoxy)-2-methylpropanoate], the melting point lay within 58 to 60 °C.
For `COc1ccc(C(=O)c2ccc(Oc3ccccc3)nc2)c(OC(C)(C)C(=O)O)c1` [Example 51, 2-{5-methoxy-2-[(6-phenoxypyridin-3-yl)carbonyl]phenoxy}-2-methylpropanoic acid] the value was 167.5 to 168.5 °C.
For `COc1ccc(C(=O)c2ccc(OCc3nc(-c4ccccc4)oc3C)nc2)c(O[C@H](C)C(=O)O)c1` [Example 54, (2R)-2-[5-methoxy-2-({6-[(5-methyl-2-phenyl-1,3-oxazol-4-yl)methoxy]pyridin-3-yl}carbonyl)phenoxy]propanoic acid] the value was 164.5 to 165.5 °C; for `COc1ccc(C(=O)c2ccc(OCc3nc(-c4ccccc4)oc3C)cc2)c(O[C@@H](C)C(=O)O)c1` [Example 57, (2S)-2-(5-methoxy-2-{4-[(5-methyl-2-phenyl-1,3-oxazol-4-yl)methoxy]benzoyl}phenoxy)propanoic acid], 169 to 170 °C.
